The record followed here is ChEMBL document CHEMBL1697781, “Assessment of the health effects of chemicals in humans: II. Construction of an adverse effects database for QSAR modeling” (Curr Drug Discov Technol, 2004).

Each structure is given as a SMILES string.
For GGT Increase - Index Value in this document: reference of the scale not given here.
For LDH Increase - Index Value in this document: reference of the scale not given here.

In the first series the test system is Hepatotoxicity. In words: FDA HLAED, serum glutamic pyruvic transaminase (SGPT) increase. The note with it: human.
Turning to `CC(C)NCC(O)COc1ccc(COCCOC(C)C)cc1` (centres undefined) [BISOPROLOL], the “SGPT Increase - Activity Score” value is “Inactive”, the “SGPT Increase - Index Value” was 3.1 and the “SGPT Increase - Number of Reports” value is reported as < 4.

As to `Cc1ccc(C(=O)Oc2ccc(C(O)CNC(C)(C)C)cc2OC(=O)c2ccc(C)cc2)cc1` (centres undefined) [BITOLTEROL], the “SGPT Increase - Activity Score” value is listed as “Inactive”, the “SGPT Increase - Index Value” was 0 and the “SGPT Increase - Number of Reports” value was < 4.

As for `CC[N+](C)(C)Cc1ccccc1Br.Cc1ccc(S(=O)(=O)[O-])cc1` [BRETYLIUM TOSYLATE], the “SGPT Increase - Activity Score” value is recorded as “Inactive”, the “SGPT Increase - Index Value” stood at 0 and the “SGPT Increase - Number of Reports” value is listed as < 4.

In a further series the test system is Hepatotoxicity. In words: FDA HLAED, serum glutamic oxaloacetic transaminase (SGOT) increase. The settings on record: human.
With `CC(C)NCC(O)COc1ccc(COCCOC(C)C)cc1` (centres undefined) [BISOPROLOL], the “SGOT Increase - Activity Score” value is “Inactive”, the “SGOT Increase - Index Value” worked out at 0 and the “SGOT Increase - Number of Reports” value is listed as < 4.

Take `Cc1ccc(C(=O)Oc2ccc(C(O)CNC(C)(C)C)cc2OC(=O)c2ccc(C)cc2)cc1` (centres undefined) [BITOLTEROL]: the “SGOT Increase - Activity Score” value is reported as “Inactive”, the “SGOT Increase - Index Value” is on record as 0 and the “SGOT Increase - Number of Reports” value is recorded as < 4.

Turning to `CC[N+](C)(C)Cc1ccccc1Br.Cc1ccc(S(=O)(=O)[O-])cc1` [BRETYLIUM TOSYLATE], the “SGOT Increase - Activity Score” value was “Inactive”, the “SGOT Increase - Index Value” is listed as 0 and the “SGOT Increase - Number of Reports” value is given as < 4.

For another series, the system named is Hepatotoxicity. In words: FDA HLAED, lactate dehydrogenase (LDH) increase. The settings on record: human.
As to `CC(C)NCC(O)COc1ccc(COCCOC(C)C)cc1` (centres undefined) [BISOPROLOL], the “LDH Increase - Activity Score” value is “Inactive”, the “LDH Increase - Index Value” was 0 and the “LDH Increase - Number of Reports” value is given as < 4.

Consider `Cc1ccc(C(=O)Oc2ccc(C(O)CNC(C)(C)C)cc2OC(=O)c2ccc(C)cc2)cc1` (centres undefined) [BITOLTEROL], for which the “LDH Increase - Activity Score” value is listed as “Inactive”, the “LDH Increase - Index Value” is reported as 0 and the “LDH Increase - Number of Reports” value is listed as < 4.

As to `CC[N+](C)(C)Cc1ccccc1Br.Cc1ccc(S(=O)(=O)[O-])cc1` [BRETYLIUM TOSYLATE], the “LDH Increase - Activity Score” value is on record as “Inactive”, the “LDH Increase - Index Value” came out at 0 and the “LDH Increase - Number of Reports” value is on record as < 4.

Another series has as its system Hepatotoxicity. Briefly: FDA HLAED, liver enzyme composite activity. The settings on record: human.
Regarding `CC(C)NCC(O)COc1ccc(COCCOC(C)C)cc1` (centres undefined) [BISOPROLOL], the “Composite Activity - Active” value turned out to be 1, the “Composite Activity - Marginal” value stood at 0 and the “Composite Activity - Score” value is recorded as “Inactive”.

For `Cc1ccc(C(=O)Oc2ccc(C(O)CNC(C)(C)C)cc2OC(=O)c2ccc(C)cc2)cc1` (centres undefined) [BITOLTEROL], the “Composite Activity - Active” value is on record as 0, the “Composite Activity - Marginal” value came to 0 and the “Composite Activity - Score” value is on record as “Inactive”.

`CC[N+](C)(C)Cc1ccccc1Br.Cc1ccc(S(=O)(=O)[O-])cc1` [BRETYLIUM TOSYLATE]: the “Composite Activity - Active” value is on record as 0, the “Composite Activity - Marginal” value is reported as 0 and the “Composite Activity - Score” value is given as “Inactive”.

Another series has as its system Hepatotoxicity. Briefly: FDA HLAED, gamma-glutamyl transferase (GGT) increase. The note with it: human.
Consider `CC(C)NCC(O)COc1ccc(COCCOC(C)C)cc1` (centres undefined) [BISOPROLOL], for which the “GGT Increase - Activity Score” value is “Active”, the “GGT Increase - Index Value” worked out at 12.3 and the “GGT Increase - Number of Reports” value was < 4.

In the case of `Cc1ccc(C(=O)Oc2ccc(C(O)CNC(C)(C)C)cc2OC(=O)c2ccc(C)cc2)cc1` (centres undefined) [BITOLTEROL], the “GGT Increase - Activity Score” value is given as “Inactive”, the “GGT Increase - Index Value” is 0 and the “GGT Increase - Number of Reports” value is listed as < 4.

Consider `CC[N+](C)(C)Cc1ccccc1Br.Cc1ccc(S(=O)(=O)[O-])cc1` [BRETYLIUM TOSYLATE], for which the “GGT Increase - Activity Score” value is on record as “Inactive”, the “GGT Increase - Index Value” is 0 and the “GGT Increase - Number of Reports” value is < 4.

The test system of another series is Hepatotoxicity. In words: FDA HLAED, alkaline phosphatase increase. The note with it: human.
On to `CC(C)NCC(O)COc1ccc(COCCOC(C)C)cc1` (centres undefined) [BISOPROLOL], for which the “Alkaline Phosphatase Increase - Activity Score” value was “Inactive”, the “Alkaline Phosphatase Increase - Index Value” is reported as 3.1 and the “Alkaline Phosphatase Increase - Number of Reports” value is listed as < 4.

For the compound `Cc1ccc(C(=O)Oc2ccc(C(O)CNC(C)(C)C)cc2OC(=O)c2ccc(C)cc2)cc1` (centres undefined) [BITOLTEROL], the “Alkaline Phosphatase Increase - Activity Score” value is given as “Inactive”, the “Alkaline Phosphatase Increase - Index Value” is recorded as 0 and the “Alkaline Phosphatase Increase - Number of Reports” value was < 4.

`CC[N+](C)(C)Cc1ccccc1Br.Cc1ccc(S(=O)(=O)[O-])cc1` [BRETYLIUM TOSYLATE]: the “Alkaline Phosphatase Increase - Activity Score” value is given as “Inactive”, the “Alkaline Phosphatase Increase - Index Value” is given as 0 and the “Alkaline Phosphatase Increase - Number of Reports” value was < 4.
